Molecules are shown by their SMILES.

The first experiment deals with human immortalized podocytes inducibly expressing APOL1 G2. Briefly: APOL1 G2 podocyte cell rescue assay (Example B4). Type of experiment: cell-based. The conditions noted are these: Homo sapiens, differentiated human podocytes, doxycycline-induced APOL1 G2, CellTiter-Glo; geometric mean of at least 2 runs; † = single run. Here is the method:
APOL1 G2 human immortalized podocyte viability assay for measurement of cytotoxicity reversal by compound (APOL1 G2 podocyte cell rescue assay).
Cell Handling. The hTERT-immortalized kidney podocyte cell line was procured from the laboratory of Dr. Moin Saleem at the University of Bristol, UK (Nephrology 17 (2012) 525-531; doi:10.1111/j.1440-1797.2012.01619.x; herein incorporated by reference in its entirety). Parental and engineered cell lines were cultured in RPMI 1640 media (Gibco, 11875093) with 10% Tet System Approved FBS (Takara, 631101). The engineered cell line was maintained under selection (2.5 μg/mL puromycin). Cell lines were maintained and engineered at 33° C. Cell cultures were transferred to 37° C. for 10 to 14 days to initiate differentiation (Nephrology 17 (2012) 525-531; doi:10.1111/j.1440-1797.2012.01619.x; herein incorporated by reference in its entirety). During this time, media was refreshed every 3 days. After differentiation, cells engineered to inducibly express APOL1 G2 were used in the podocyte cell rescue assay.
Cell Line Engineering. The APOL1 G2 coding sequence was cloned into the pLVX-TetOne-Puro vector and verified by sequencing (Genscript Biotech). This construct was designed to have a C-terminal HiBiT tag. Lentiviral packaging of the vector was conducted using the Lenti-X Packaging Single Shots (VSVG) system according to manufacturer instructions (Takara Bio, 631275). A stable cell line was generated by transfecting the parental podocyte cell line with the concentrated virus in media with 5 μg/mL polybrene (Sigma, TR-1003-G). Media was changed the following day. 72 hours post transfection, 2.5 μg/mL puromycin (Gibco, A1113803) was added to the cells and cells were maintained in selection media thereafter. This APOL1 G2 stable cellular pool was subjected to a stringent limiting dilution to generate a pure stable clone (Podocyte/pLVX-TetOne APOL1 G2/clone D10) capable of inducible expression of APOL1 G2.
Assay Setup. T175 flasks containing differentiated podocytes engineered to inducibly express APOL1 G2 (Podocyte/pLVX-TetOne APOL1 G2/clone D10) were washed once with 15 mL of DPBS (Thermo Fisher, 14190-144). These flasks were each trypsinized with 3 mL of prewarmed TrypLE Express (Gibco, 12605-010) and incubated at 37° C. with 5% CO2 until cells detached and neutralized with 7 mL of prewarmed assay media (RPMI 1640 media with 10% Tet System Approved FBS, no selection agent). Cells were pooled and the resulting suspension was gently mixed. The cell suspension was counted using a Countess Cell Counting Chamber (Invitrogen) and the cell concentration was adjusted to 240,000 cells/mL using assay media. Next, 25 μL of a 480 ng/mL working stock of doxycycline diluted in assay media was added to an assay ready plate. All experiments were performed in 384-well, white, solid bottom, tissue culture treated plates (Greiner, 781080). The assay ready compound plates were generated with duplicate 8-point compound dilution series that consisted of 3-fold stepwise dilutions (0.4% DMSO final). The plates were centrifuged at 1000 rpm for 1 minute. 25 μL of diluted cell suspension (final cell density=6,000 cells/well) was added to each well. The plates were centrifuged again at 1000 rpm for 1 minute and then incubated in a humidified incubator (37° C. with 5% CO2). After 95 hours, the assay plates were removed from the incubator and allowed to equilibrate to room temperature for 1 hour. CellTiter-Glo® reagent (Promega, G7570) was prepared according to the manufacturer's instructions. 25 μL of CellTiter-Glo® reagent was added to each well. Assay plates were sealed with foil and mixed for 5 minutes on an orbital shaker (500 rpm) to induce cell lysis. Plates were centrifuged at 1000 rpm for 1 minute. 10 minutes after CellTiter-Glo® reagent addition, an Envision plate reader (Perkin Elmer) was used to measure the luminescent signal of each assay plate. Collaborative Drug Discovery software was utilized for graphing data. […]
For `CC(O)c1ncc(OCCN2CCC3(CC2)C(=O)Nc2ccc(C(F)F)cc23)cc1C(F)(F)F` (single isomer, unassigned) [Compound 287, 5-(difluoromethyl)-1′-[2-({6-[(1S) or (1R)-1-hydroxyethyl]-5-(trifluoromethyl)pyridin-3-yl}oxy)ethyl]-1,2-dihydrospiro[indole-3,4′-piperidin]-2-one], it took 17.7 nM to reach a half-maximal effect (EC50). This counts as double-digit nanomolar.

In turn, `CC[C@]1(O)C[C@H](N2C(=O)CCc3cc(OCCN4CCC5(CC4)C(=O)Nc4ccc(Cl)cc45)cnc32)C1` (single isomer, unassigned) [Compound 290, 5-chloro-1′-[2-({7-oxo-8-[(trans)-3-ethyl-3-hydroxycyclobutyl]-5,6,7,8-tetrahydro-1,8-naphthyridin-3-yl}oxy)ethyl]-1,2-dihydrospiro[indole-3,4′-piperidin]-2-one] yielded an EC50 of 2.76 nM. This EC50 lies about 6.4-fold lower than the previous one.

`C[C@]1(O)C[C@H](N2C(=O)CCc3cc(OCCN4CCC5(CC4)C(=O)Nc4ccc(Cl)cc45)cnc32)C1` (single isomer, unassigned) [Compound 307, 5-chloro-1′-[2-({7-oxo-8-[(trans)-3-hydroxy-3-methylcyclobutyl]-5,6,7,8-tetrahydro-1,8-naphthyridin-3-yl}oxy)ethyl]-1,2-dihydrospiro[indole-3,4′-piperidin]-2-one] yielded a concentration for a half-maximal effect (EC50) of 2.61 nM.

The compound `CS(=O)(=O)c1ccc(OCCN2CCC3(CC2)C(=O)N(CCO)c2ccc(Br)cc23)cc1` [Compound 24, 5-bromo-1-(2-hydroxyethyl)-1′-[2-(4-methanesulfonylphenoxy)ethyl]-1,2-dihydrospiro[indole-3,4′-piperidin]-2-one] had an EC50 of 37.4 nM.

For the compound `O=C(c1ccc(OCCN2CCC3(CC2)C(=O)Nc2ccc(Cl)cc23)cc1F)N1CCS(=O)(=O)CC1` [Compound 232, 4-[4-(2-{5-chloro-2-oxo-1,2-dihydrospiro[indole-3,4′-piperidin]-1′-yl}ethoxy)-2-fluorobenzoyl]-1λ^6-thiomorpholine-1,1-dione], the midpoint of the response, the EC50, lay at 2.17 nM.

The compound `CS(=O)(=O)C1CN(C(=O)c2ccc(OCCN3CCC4(CC3)C(=O)Nc3ccc(Cl)cc34)cc2F)C1` [Compound 233, 5-chloro-1′-{2-[3-fluoro-4-(3-methanesulfonyl-azetidine-1-carbonyl)phenoxy]ethyl}-1,2-dihydrospiro[indole-3,4′-piperidin]-2-one] returned an EC50 of 4.25 nM.

`O=C(c1ccc(OCCN2CCC3(CC2)C(=O)Nc2ccc(Cl)cc23)cc1F)N1CC2(C1)CS(=O)(=O)C2` [Compound 239, 6-[4-(2-{5-chloro-2-oxo-1,2-dihydrospiro[indole-3,4′-piperidin]-1′-yl}ethoxy)-2-fluorobenzoyl]-2λ^6-thia-6-azaspiro[3.3]heptane-2,2-dione] showed an EC50 of 2.1 nM. Compared with the last compound, the EC50 is about 2-fold lower.

`O=C(c1c(F)cc(OCCN2CCC3(CC2)C(=O)Nc2ccc(Cl)cc23)cc1F)N1CCS(=O)(=O)CC1` [Compound 259, 4-[4-(2-{5-chloro-2-oxo-1,2-dihydrospiro[indole-3,4′-piperidin]-1′-yl}ethoxy)-2,6-difluorobenzoyl]-1λ^6-thiomorpholine-1,1-dione]: it took 1.21 nM to reach a half-maximal effect (EC50).

In the case of `CN1C(=O)C2(CCN(CCOc3cc(F)c(C(=O)N4CCS(=O)(=O)CC4)c(F)c3)CC2)c2cc(C#N)ccc21` [Compound 260, 1′-{2-[4-(1,1-dioxo-1λ^6-thiomorpholine-4-carbonyl)-3,5-difluorophenoxy]ethyl}-1-methyl-2-oxo-1,2-dihydrospiro[indole-3,4′-piperidine]-5-carbonitrile], the EC50 was 10.3 nM.

In turn, `CN1C(=O)C2(CCN(CCOc3ccc(C(=O)N4CCS(=O)(=O)CC4)c(C(F)(F)F)c3)CC2)c2cc(C#N)ccc21` [Compound 261, 1′-{2-[4-(1,1-dioxo-1λ^6-thiomorpholine-4-carbonyl)-3-(trifluoromethyl)phenoxy]ethyl}-1-methyl-2-oxo-1,2-dihydrospiro[indole-3,4′-piperidine]-5-carbonitrile] displayed an EC50 of 2.29 nM.

`O=C(c1ccc(OCCN2CCC3(CC2)C(=O)Nc2ccc(Cl)cc23)cc1C(F)(F)F)N1CCS(=O)(=O)CC1` [Compound 272, 4-[4-(2-{5-chloro-2-oxo-1,2-dihydrospiro[indole-3,4′-piperidin]-1′-yl}ethoxy)-2-(trifluoromethyl)benzoyl]-1λ^6-thiomorpholine-1,1-dione]: the EC50 was determined as 1 nM.

`CS(=O)(=O)N1CC2(CN(C(=O)c3ccc(OCCN4CCC5(CC4)C(=O)Nc4ccc(Cl)cc45)cc3F)C2)C1` [Compound 273, 5-chloro-1′-[2-(3-fluoro-4-{6-methanesulfonyl-2,6-diazaspiro[3.3]heptane-2-carbonyl}phenoxy)ethyl]-1,2-dihydrospiro[indole-3,4′-piperidin]-2-one] registered an EC50 of 5.2 nM.

In the case of `C[C@]1(O)C[C@@H](N2C(=O)CCc3cc(OCCN4CCC5(CC4)C(=O)Nc4ccc(C(F)F)cc45)cnc32)C1` [Compound 274, 5-(difluoromethyl)-1′-[2-({7-oxo-8-[(cis)-3-hydroxy-3-methylcyclobutyl]-5,6,7,8-tetrahydro-1,8-naphthyridin-3-yl}oxy)ethyl]-1,2-dihydrospiro[indole-3,4′-piperidin]-2-one], the response was half-maximal at 18.8 nM (EC50).

In the case of `C[C@]1(O)C[C@@H](N2C(=O)CCc3cc(OCCN4CCC5(CC4)C(=O)Nc4ccc(Cl)cc45)cnc32)C1` [Compound 275, 5-chloro-1′-[2-({7-oxo-8-[(cis)-3-hydroxy-3-methylcyclobutyl]-5,6,7,8-tetrahydro-1,8-naphthyridin-3-yl}oxy)ethyl]-1,2-dihydrospiro[indole-3,4′-piperidin]-2-one], a half-maximal effect (EC50) was put at 3.89 nM.

As for `CS(=O)(=O)C1(c2ncc(OCCN3CCC4(CC3)C(=O)Nc3ccc(Cl)cc34)cn2)COC1` [Compound 276, 5-chloro-1′-(2-{[2-(3-methanesulfonyloxetan-3-yl)pyrimidin-5-yl]oxy}ethyl)-1,2-dihydrospiro[indole-3,4′-piperidin]-2-one], the EC50 amounted to 10.4 nM. This EC50 lies about 2.7-fold higher than the previous one.

`CS(=O)(=O)C1(c2ncc(OCCN3CCC4(CC3)C(=O)Nc3ccc(C#N)cc34)cc2F)CC1` [Compound 283, 1′-(2-{[5-fluoro-6-(1-methanesulfonylcyclopropyl)pyridin-3-yl]oxy}ethyl)-2-oxo-1,2-dihydrospiro[indole-3,4′-piperidine]-5-carbonitrile] returned an EC50 of 5.08 nM.

For `CC(O)c1ncc(OCCN2CCC3(CC2)C(=O)Nc2ccc(Cl)cc23)cn1` (stereo not shown) [Compound 284, 5-chloro-1′-(2-{[2-(1-hydroxyethyl)pyrimidin-5-yl]oxy}ethyl)-1,2-dihydrospiro[indole-3,4′-piperidin]-2-one], the EC50 was determined as 105 nM. This EC50 is about 21-fold higher than that of the compound before.

With `C[C@]1(O)C[C@@H](N2C(=O)OCc3cc(OCCN4CCC5(CC4)C(=O)Nc4ccc(Cl)cc45)cnc32)C1` [Compound 289, 5-chloro-1′-[2-({2-oxo-1-[(cis)-3-hydroxy-3-methylcyclobutyl]-1H,2H,4H-pyrido[2,3-d][1,3]oxazin-6-yl]oxy)ethyl]-1,2-dihydrospiro[indole-3,4′-piperidin]-2-one], the response was half-maximal at 2.22 nM (EC50).

Still in this experiment, the particulars now being: differentiated human podocytes, doxycycline-induced APOL1 G2, CellTiter-Glo; geometric mean of at least 2 runs; † = single run.
`CC(O)c1ncc(OCCN2CCC3(CC2)C(=O)Nc2ccc(C(F)F)cc23)cc1C(F)(F)F` (single isomer, unassigned) [Compound 288, 5-(difluoromethyl)-1′-[2-({6-[(1R) or (1S)-1-hydroxyethyl]-5-(trifluoromethyl)pyridin-3-yl}oxy)ethyl]-1,2-dihydrospiro[indole-3,4′-piperidin]-2-one] came in with an EC50 of 19.5 nM. This counts as double-digit nanomolar.
